Results: patent US4963570A, “1-(acetylaminophenyl)-2-aminopropanone derivatives and pharmaceutical compositions thereof” (Laboratoire L. Lafon, priority 1983, dated 1990)
Entries after “also recorded” stand apart in the source; their conditions may differ. Counter-ions that a name gives are not always drawn.

Legend:
immunological properties = assay: immunological properties, overall; type: in vivo; conditions: dose not stated
Source text: The present 1-(acetylaminophenyl)-2-aminopropanone derivatives are useful in therapy. They all act on the CNS, more precisely as antidepressants. They have a stimulant or excitant component in their neuropsychopharmacological profile.

[1] = test system: delayed hypersensitivity to the red blood corpuscles of sheep; assay: delayed hypersensitivity to the red blood corpuscles of sheep (Miller); type: in vivo
[2] = test system: spleen cells expressing a direct IgM antibody response; assay: test for cells forming lysis areas (PFC IgM, Cunningham); type: in vivo, mouse; conditions: 0.1, 10 and 100 mg/kg
Method: Immunological assays were carried out in order to point out the interest of CRL 41 240 as an immunomodulating agent. Specifically, the test used was the so-called test for cells forming lysis areas, described by A. J. […] et al. ("Further improvements in the plaque technique for detecting simple antibody forming cells"), Immunology 14, pages 599-601 (1968).
The test for cells forming lysis areas (or PFC IgM) explores the humoral immunity. Four days after immunization with a T-dependent antigen (in this case red blood corpuscles of sheep), the spleen cells expressing a direct IgM antibody response are counted. The mice used for this purpose are conventional female OF1 mice devoid of specific pathogenic organisms, weighing from 20 to 30 g and divided up into a control group of 14 animals and groups each containing 7 animals per dose and per product to be studied, administered orally on the same day as the antigen. An activity index I is calculated for each dose of product according to the following equation: [formula]
This test is performed at least twice for each dose of test product [C(control amimals), 0.01, 0.1, 10 and 100 mg/kg] and a statistical study is undertaken using the Student t test after variance analysis on the number of lyses per spleen.

CNS = assay: overall neuropsychopharmacological (CNS) profile; type: in vivo, mouse; rat; conditions: i.p.
Method: The neuropsychopharmacological study of CRL 41 219 was carried out as indicated above for CRL 41 224.
The neuropsychopharmacological study of CRL 41 220 was carried out in accordance with the procedures given above for CRL 41 224.

mice [3] = assay: four plate test, traction and electric shock; type: in vivo, mouse; conditions: i.p., strong/high dose
Method: The test is performed on groups of 10 mice 30 minutes after the administration of CRL 41 224.

mice [4] = assay: overall behavior and reactivities in mice; type: in vivo, mouse; conditions: i.p.
Method: Groups of three animals are observed before and then 0.25 hour, 0.50 hour, 1 hour, 2 hours, 3 hours and 24 hours after the administration of CRL 41 224.

male mice = assay: acute toxicity, intraperitoneal (lethal doses); type: in vivo, mouse; conditions: i.p.
Method: By intraperitoneal administration to male mice, the LD-30 (lethal dose for 30% of the animals tested) is of the order of 128 mg/kg and the LD-50 is of the order of about 200 mg/kg.

mice [5] = assay: interaction with apomorphine in mice; type: in vivo, mouse; conditions: i.p., strong doses
Method: Groups of 6 mice receive CRL 41 224 0.5 hour before the subcutaneous injection of 1 or 16 mg/kg of apomorphine.

mice [6] = assay: interaction with reserpine; type: in vivo, mouse; conditions: i.p., strong doses
Method: Four hours after the intraperitoneal injection of 2.5 mg/kg of reserpine, groups of 6 mice receive CRL 41 224.

mice [7] = assay: motility reduced by habituation to the enclosure; type: in vivo, mouse; conditions: i.p., strong doses
Method: After they have stayed in the actimeters for 18 hours, the mice (6 per dose, 12 control animals) receive CRL 41 224. They are immediately returned to their respective enclosures and, half an hour later, their motility is recorded for 30 minutes.

mice [8] = assay: interaction with oxotremorine; type: in vivo, mouse; conditions: i.p., strong/high doses
Method: CRL 41 224 is administered to groups of 6 mice 0.5 hour before the intraperitoneal injection of 0.5 mg/kg of oxotremorine.

rats = assay: interaction with amphetamine; type: in vivo, rat; conditions: i.p., strong doses
Method: Amphetamine (2 mg/kg) is injected intraperitoneally into groups of 6 rats 30 minutes after the administration of CRL 41 224.

mice [9] = assay: motility reduced by hypoxic aggression; type: in vivo, mouse; conditions: i.p., strong doses
Method: Half an hour after they have received CRL 41 224, the mice (10 per dose, 20 control animals) are subjected to acute hypobaric anoxia [pressure reduction of 600 mm Hg (i.e. about 8×10^4 Pa) in 90 seconds; release of vacuum in 45 seconds] and are then placed in an actimeter, where their motility is recorded for 10 minutes.

mice [10] = assay: action on the behavioral despair; type: in vivo, mouse; conditions: i.p., strong/high doses
Source text: Half an hour after they have received CRL 41 224, groups of 6 mice are placed in a beaker filled with water to a height of 6 cm. The total period of immobility between the 2nd and 6th minutes following immersion is noted.

## CC(=O)Nc1cccc(C(=O)C(C)N2CCCCC2)c1 (stereo not shown) [CRL 41 262, 1-(3-acetylaminophenyl)-2-piperidinopropanone hydrochloride]
Immunological properties; hydrochloride
  immunological properties, overall: beneficial immunomodulating effects; also recorded: particularly valuable as an immunomodulator
[1]; oral, 10 and 100 mg/kg
  immunostimulant activity, delayed hypersensitivity: immunostimulant activity
[2]
  immunostimulant activity, PFC IgM test: immunostimulant activity
CNS; mice and rats, dose not stated
  overall action on the CNS: antidepressant and stimulant effects on the CNS

## CC(=O)Nc1ccc(C(=O)C(C)N2CCSCC2)cc1 (stereo not shown) [CRL 41 247]
Immunological properties
  immunological properties, overall: beneficial immunomodulating effects
Mice [3]
  convulsant effects of electric shock: a reduction in the convulsant effects of electric shock
Mice [4]; 256 mg/kg, 30 minutes after administration
  hypothermia, temperature change: -3.3 °C
Mice [4]; strong/high doses
  body temperature (hypothermia): hypothermia
Male mice
  LD-0 (maximum non-lethal dose): greater than 512 mg/kg
  LD-60: about 1000 mg/kg
[1]; dose not stated
  cell activity (technique of Miller et al.): stimulates cell activity
Mice [5]
  hypothermia induced by apomorphine: very moderate antagonism of the hypothermia induced by apomorphine
Mice [6]
  hypothermia induced by reserpine: no antagonism towards the hypothermia induced by reserpine
Mice [7]
  motor activity after habituation to the enclosure: an increase in the motor activity of mice after habituation to their enclosure
Mice [8]
  hypothermia induced by oxotremorine: very moderate antagonism of the hypothermia induced by apomorphine and oxotremorine
rats
  stereotypies induced by amphetamine: potentiation of the stereotypies induced by amphetamine
Mice [9]
  motor activity after acute hypoxia: an increase in the motor activity of mice after habituation to their enclosure and after acute hypoxia
CNS; strong/high doses
  overall action on the CNS: discreet antidepressant effects; also recorded: stimulant effects
Mice [10]
  period of immobility of mice forcibly immersed: a reduction in the period of immobility
